Reference: US7759331B2, “Pyridine-containing macroheterococylic compounds as kinase inhibitors” (Janssen Pharmaceutica NV, priority 2006, dated 2010)

How the values were obtained:
Experiment in all cases: Protein kinase selectivity panel
Format in all cases: biochemical
Details in all cases: 1.0 μM compound, 10 μM ATP
PAK2(h) = PAK2(h) (Homo sapiens, UniProt Q13177)
Outline: (§1)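 Kinase, its appropriate substrate, and 10 μM ATP were combined with 1.0 μM compound. Phosphorylation was then allowed to proceed within the time-linear range and measured.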

MAPK1(h) = MAPK1(h) (Homo sapiens, UniProt P27361)
Chain of MAPK1(h) (P27361 whole entry): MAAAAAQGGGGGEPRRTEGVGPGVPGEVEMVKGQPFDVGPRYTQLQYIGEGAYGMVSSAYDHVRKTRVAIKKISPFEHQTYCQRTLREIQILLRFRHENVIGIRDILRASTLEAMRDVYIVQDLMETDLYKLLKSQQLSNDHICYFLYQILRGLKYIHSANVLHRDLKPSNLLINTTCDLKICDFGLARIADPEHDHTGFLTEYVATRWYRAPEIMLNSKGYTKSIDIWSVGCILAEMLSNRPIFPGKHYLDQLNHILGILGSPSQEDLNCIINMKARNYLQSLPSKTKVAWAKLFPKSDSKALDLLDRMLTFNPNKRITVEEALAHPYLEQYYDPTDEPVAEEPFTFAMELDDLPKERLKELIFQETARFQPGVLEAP
Outline: as §1

Abl(h) = Abl(h) (Homo sapiens, UniProt P00519)
Outline: as §1

IR(h) = IR(h) (Homo sapiens, UniProt P06213)
Chain of IR(h) (P06213 28-1382): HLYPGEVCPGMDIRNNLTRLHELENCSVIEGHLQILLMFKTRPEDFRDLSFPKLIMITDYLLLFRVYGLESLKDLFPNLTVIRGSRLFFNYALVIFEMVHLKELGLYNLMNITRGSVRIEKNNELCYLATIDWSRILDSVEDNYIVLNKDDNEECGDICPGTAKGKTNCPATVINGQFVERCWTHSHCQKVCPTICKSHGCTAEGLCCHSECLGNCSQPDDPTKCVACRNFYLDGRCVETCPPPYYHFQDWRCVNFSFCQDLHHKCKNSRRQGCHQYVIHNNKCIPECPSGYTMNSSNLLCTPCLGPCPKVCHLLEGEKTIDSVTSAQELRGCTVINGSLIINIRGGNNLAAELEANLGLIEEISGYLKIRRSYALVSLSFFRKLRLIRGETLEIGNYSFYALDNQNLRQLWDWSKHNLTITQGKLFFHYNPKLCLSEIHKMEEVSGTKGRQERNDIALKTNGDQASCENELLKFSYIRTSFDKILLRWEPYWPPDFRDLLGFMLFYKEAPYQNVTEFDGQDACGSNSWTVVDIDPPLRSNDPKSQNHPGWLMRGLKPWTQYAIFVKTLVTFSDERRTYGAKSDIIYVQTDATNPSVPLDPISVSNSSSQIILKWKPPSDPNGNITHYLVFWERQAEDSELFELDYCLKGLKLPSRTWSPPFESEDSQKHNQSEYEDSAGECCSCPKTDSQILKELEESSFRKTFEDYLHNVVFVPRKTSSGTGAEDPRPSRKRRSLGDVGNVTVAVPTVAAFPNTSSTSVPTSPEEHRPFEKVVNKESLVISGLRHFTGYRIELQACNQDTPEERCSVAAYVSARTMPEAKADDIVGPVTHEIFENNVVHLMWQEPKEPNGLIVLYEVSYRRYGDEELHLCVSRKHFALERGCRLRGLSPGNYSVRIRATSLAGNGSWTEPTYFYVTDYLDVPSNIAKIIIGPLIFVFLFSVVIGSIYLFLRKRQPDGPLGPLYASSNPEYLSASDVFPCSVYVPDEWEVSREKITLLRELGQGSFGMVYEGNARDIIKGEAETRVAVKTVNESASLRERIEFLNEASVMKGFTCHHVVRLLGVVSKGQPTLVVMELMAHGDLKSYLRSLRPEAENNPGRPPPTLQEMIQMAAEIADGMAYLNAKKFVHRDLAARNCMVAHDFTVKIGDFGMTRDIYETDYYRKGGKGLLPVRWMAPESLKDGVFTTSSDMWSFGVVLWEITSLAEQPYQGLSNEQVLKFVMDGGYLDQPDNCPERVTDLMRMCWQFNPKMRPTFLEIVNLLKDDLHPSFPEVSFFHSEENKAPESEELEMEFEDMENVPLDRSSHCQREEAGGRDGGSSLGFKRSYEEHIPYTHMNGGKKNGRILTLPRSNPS
Outline: as §1

Lyn(m) = Lyn(m) (Mus musculus, UniProt P25911)
Chain of Lyn(m) (P25911 whole entry): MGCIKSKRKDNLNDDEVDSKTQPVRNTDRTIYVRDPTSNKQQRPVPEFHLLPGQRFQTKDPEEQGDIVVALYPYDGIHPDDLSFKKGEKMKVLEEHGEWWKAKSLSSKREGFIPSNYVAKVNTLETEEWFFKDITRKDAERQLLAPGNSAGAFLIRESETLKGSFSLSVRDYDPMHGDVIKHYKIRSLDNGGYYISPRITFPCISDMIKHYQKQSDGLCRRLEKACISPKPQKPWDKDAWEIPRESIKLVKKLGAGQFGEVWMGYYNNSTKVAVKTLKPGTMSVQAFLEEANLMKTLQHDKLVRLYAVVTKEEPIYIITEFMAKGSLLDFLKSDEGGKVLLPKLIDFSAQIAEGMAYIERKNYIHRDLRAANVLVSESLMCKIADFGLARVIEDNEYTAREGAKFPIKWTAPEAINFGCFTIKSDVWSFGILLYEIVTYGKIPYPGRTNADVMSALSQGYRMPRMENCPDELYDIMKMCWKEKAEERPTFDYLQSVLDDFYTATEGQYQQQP
Outline: as §1

JNK1α1(h) = JNK1α1(h) (Homo sapiens, UniProt P45983)
Chain of JNK1α1(h) (P45983 1-384 isoform P45983-2): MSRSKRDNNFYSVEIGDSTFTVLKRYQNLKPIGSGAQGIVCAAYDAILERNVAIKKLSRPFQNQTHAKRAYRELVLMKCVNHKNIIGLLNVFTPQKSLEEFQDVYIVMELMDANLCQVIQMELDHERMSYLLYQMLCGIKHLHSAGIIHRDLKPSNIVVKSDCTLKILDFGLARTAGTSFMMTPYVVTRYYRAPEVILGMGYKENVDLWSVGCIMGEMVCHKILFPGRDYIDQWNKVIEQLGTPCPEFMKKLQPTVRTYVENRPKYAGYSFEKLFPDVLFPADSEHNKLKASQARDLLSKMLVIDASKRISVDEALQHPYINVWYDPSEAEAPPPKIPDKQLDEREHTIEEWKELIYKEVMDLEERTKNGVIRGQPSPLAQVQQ
Outline: as §1

Axl(h) = target: T1, Axl(h) (Homo sapiens, UniProt P30530)
T1 sequence (P30530 26-894): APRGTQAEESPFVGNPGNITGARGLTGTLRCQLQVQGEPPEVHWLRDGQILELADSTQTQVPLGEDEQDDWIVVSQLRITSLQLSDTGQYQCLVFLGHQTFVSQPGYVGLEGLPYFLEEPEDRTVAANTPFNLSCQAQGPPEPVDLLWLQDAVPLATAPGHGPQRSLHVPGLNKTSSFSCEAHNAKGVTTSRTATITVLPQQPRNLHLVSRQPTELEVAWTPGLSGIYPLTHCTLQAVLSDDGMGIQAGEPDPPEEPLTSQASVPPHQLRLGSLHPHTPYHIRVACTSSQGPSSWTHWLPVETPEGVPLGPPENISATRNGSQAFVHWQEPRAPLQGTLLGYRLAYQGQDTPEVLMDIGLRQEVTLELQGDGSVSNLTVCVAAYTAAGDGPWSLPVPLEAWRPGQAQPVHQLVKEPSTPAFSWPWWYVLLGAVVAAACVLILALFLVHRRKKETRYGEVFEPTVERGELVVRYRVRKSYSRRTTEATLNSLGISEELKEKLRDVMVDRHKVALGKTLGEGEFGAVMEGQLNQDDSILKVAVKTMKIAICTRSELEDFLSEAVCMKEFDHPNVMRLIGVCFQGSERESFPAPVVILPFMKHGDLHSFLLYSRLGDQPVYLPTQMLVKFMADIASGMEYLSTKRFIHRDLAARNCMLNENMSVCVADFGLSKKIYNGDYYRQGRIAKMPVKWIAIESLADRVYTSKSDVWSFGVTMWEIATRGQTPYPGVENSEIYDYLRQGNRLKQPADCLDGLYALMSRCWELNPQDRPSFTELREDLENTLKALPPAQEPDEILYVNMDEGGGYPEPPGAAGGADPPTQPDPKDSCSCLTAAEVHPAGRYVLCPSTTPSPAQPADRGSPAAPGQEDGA
Outline: as §1

CDK3/cyclinE(h) = CDK3/cyclinE(h) (Homo sapiens, UniProt Q00526)
Chain of CDK3/cyclinE(h) (Q00526 whole entry): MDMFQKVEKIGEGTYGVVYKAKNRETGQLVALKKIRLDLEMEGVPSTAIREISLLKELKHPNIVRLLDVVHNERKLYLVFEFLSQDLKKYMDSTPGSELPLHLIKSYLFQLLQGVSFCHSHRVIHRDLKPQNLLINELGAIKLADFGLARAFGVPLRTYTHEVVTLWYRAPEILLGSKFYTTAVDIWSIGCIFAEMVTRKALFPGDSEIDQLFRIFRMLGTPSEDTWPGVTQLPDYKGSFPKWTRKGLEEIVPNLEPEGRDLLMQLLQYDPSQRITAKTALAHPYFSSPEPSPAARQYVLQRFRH
Chain of CDK3/cyclinE(h) (P24864 whole entry partner): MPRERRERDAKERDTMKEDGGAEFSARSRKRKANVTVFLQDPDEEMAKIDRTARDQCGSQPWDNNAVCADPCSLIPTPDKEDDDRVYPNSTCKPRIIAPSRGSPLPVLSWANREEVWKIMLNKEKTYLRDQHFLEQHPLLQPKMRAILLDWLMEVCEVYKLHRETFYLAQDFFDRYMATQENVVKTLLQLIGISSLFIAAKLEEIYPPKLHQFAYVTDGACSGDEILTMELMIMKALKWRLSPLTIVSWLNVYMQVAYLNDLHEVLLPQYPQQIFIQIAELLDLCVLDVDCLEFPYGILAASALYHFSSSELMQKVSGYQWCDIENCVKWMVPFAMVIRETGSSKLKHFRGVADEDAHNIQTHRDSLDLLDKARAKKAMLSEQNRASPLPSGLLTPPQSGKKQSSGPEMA
Outline: as §1

PKCζ(h) = target: T2, PKCζ(h) (Homo sapiens, UniProt Q05513)
T2 sequence (Q05513 1-592): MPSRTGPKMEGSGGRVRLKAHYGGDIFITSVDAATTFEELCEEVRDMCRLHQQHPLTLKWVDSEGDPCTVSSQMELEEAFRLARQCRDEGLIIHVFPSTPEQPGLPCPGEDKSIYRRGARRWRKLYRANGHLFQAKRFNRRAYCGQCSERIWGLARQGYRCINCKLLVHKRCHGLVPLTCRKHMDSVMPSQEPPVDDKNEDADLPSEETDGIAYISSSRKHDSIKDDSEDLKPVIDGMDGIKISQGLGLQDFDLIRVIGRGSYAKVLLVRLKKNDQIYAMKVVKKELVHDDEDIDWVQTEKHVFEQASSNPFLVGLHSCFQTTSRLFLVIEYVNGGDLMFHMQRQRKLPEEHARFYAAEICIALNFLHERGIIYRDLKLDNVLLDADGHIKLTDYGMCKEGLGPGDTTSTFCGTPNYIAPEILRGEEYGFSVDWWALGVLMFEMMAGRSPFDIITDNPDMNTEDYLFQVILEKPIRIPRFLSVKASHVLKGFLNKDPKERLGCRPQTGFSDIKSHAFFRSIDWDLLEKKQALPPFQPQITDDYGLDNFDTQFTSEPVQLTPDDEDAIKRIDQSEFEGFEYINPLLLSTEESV
Outline: as §1

CaMKIV(h) = target: T3, CaMKIV(h) (Homo sapiens, UniProt Q16566)
T3 sequence (Q16566 1-473): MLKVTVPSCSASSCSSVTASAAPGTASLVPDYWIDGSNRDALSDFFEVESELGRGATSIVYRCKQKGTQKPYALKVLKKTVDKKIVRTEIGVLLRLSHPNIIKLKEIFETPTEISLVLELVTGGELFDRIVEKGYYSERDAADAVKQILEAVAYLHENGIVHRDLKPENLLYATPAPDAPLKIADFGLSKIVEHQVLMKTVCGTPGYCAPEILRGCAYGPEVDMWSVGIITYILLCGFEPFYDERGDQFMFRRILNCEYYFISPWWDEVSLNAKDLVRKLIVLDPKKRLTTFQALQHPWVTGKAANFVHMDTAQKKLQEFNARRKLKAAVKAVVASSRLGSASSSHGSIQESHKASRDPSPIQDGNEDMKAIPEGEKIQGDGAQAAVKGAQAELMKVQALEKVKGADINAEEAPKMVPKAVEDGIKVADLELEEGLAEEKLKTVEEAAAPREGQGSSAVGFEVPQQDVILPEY
Outline: as §1

MAPK2(h) = MAPK2(h) (Homo sapiens, UniProt P28482)
Chain of MAPK2(h) (P28482 whole entry): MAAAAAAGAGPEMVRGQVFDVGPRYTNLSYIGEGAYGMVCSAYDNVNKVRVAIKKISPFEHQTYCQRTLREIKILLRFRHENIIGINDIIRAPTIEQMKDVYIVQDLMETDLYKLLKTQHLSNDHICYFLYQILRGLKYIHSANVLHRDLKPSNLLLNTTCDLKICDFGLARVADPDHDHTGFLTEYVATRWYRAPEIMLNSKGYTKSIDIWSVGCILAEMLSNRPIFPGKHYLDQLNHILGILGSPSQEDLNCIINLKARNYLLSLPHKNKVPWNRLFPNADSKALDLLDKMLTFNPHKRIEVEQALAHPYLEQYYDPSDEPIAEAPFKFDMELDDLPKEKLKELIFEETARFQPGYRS
Outline: as §1

MAPKAP-K2(h) = MAPKAP-K2(h) (Homo sapiens, UniProt P49137)
Chain of MAPKAP-K2(h) (P49137 whole entry): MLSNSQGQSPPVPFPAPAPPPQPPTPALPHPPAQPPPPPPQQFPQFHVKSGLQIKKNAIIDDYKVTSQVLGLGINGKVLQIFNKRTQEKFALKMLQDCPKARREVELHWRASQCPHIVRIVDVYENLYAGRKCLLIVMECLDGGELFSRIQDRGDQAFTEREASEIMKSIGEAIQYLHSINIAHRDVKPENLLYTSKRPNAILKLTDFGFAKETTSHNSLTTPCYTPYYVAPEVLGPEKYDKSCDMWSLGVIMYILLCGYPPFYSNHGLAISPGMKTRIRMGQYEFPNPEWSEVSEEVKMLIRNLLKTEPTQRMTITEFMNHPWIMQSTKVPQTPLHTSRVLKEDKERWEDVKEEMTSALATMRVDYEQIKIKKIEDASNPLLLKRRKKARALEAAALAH
Outline: as §1

Chain of PAK2(h) (Q13177 whole entry): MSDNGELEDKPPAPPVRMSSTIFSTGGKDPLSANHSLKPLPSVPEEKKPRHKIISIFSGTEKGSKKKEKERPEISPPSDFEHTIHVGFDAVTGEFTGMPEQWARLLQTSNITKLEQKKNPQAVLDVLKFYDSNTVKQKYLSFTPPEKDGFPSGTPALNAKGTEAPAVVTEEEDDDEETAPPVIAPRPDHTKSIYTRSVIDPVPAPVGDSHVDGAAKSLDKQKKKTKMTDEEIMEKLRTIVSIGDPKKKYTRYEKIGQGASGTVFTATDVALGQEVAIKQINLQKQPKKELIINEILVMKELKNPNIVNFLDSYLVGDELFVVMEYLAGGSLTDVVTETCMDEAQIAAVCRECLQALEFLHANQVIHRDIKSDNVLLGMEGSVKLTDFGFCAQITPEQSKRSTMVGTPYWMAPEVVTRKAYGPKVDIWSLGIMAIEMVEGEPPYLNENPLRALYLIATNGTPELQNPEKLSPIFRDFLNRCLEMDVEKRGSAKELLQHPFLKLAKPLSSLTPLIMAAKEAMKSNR

Activity at Protein Kinase Assays (% of control), PAK2(h) (PAK2(h)) | Activity at Protein Kinase Assays (% of control), MAPK1(h) (MAPK1(h)) | Activity at Protein Kinase Assays (% of control), Abl(h) (Abl(h)) | Activity at Protein Kinase Assays (% of control), IR(h) (IR(h)) | Activity at Protein Kinase Assays (% of control), Lyn(m) (Lyn(m)) | Activity at Protein Kinase Assays (% of control), JNK1α1(h) (JNK1α1(h)) | Activity at Protein Kinase Assays (% of control), Axl(h) (Axl(h)) | Activity at Protein Kinase Assays (% of control), CDK3/cyclinE(h) (CDK3/cyclinE(h)) | Activity at Protein Kinase Assays (% of control), PKCζ(h) (PKCζ(h)) | Activity at Protein Kinase Assays (% of control), CaMKIV(h) (CaMKIV(h)) | Activity at Protein Kinase Assays (% of control), MAPK2(h) (MAPK2(h)) | Activity at Protein Kinase Assays (% of control), MAPKAP-K2(h) (MAPKAP-K2(h)) | SMILES
93 % of control | 97 % of control | 105 % of control | 91 % of control | 90 % of control | 102 % of control | 97 % of control | 59 % of control | 98 % of control | 92 % of control | 102 % of control | 98 % of control | CN(C)c1nc2ccc1CCCCn1cc(c3ccccc31)C1=C(C(=O)NC1=O)c1cn(c3ccccc13)CCC2 [Cpd 1, 31-(dimethylamino)-5,15,25,32-tetraazaheptacyclo[28.2.2.1^5,12.1^18,25.0^6,11.0^13,17.0^19,24]hexatriaconta-1(32),6,8,10,12(36),13(17),18(35),19,21,23,30,33-dodecaene-14,16-dione]
103 % of control | 86 % of control | 98 % of control | 102 % of control | 102 % of control | 105 % of control | 104 % of control | 89 % of control | 105 % of control | 113 % of control | 104 % of control | 101 % of control | CN(C)c1cc2cc(n1)CCCn1cc(c3ccccc31)C1=C(C(=O)NC1=O)c1cn(c3ccccc13)CCC2 [Cpd 2, 20-(dimethylamino)-4,14,19,26-tetraazaheptacyclo[24.6.1.1^7,14.1^18,22.0^2,6.0^8,13.0^27,32]pentatriaconta-1(33),2(6),7(35),8,10,12,18(34),19,21,27,29,31-dodecaene-3,5-dione]
100 % of control | 99 % of control | 107 % of control | 110 % of control | 99 % of control | 108 % of control | 106 % of control | 86 % of control | 99 % of control | 112 % of control | 92 % of control | 108 % of control | O=C1NC(=O)C2=C1c1cn(c3ccccc13)CCCc1cc(nc(N3CCCC3)c1)CCCn1cc2c2ccccc21 [Cpd 6, 20-pyrrolidin-1-yl-4,14,19,26-tetraazaheptacyclo[24.6.1.1^7,14.1^18,22.0^2,6.0^8,13.0^27,32]pentatriaconta-1(33),2(6),7(35),8,10,12,18(34),19,21,27,29,31-dodecaene-3,5-dione]
102 % of control | 110 % of control | 108 % of control | 87 % of control | 104 % of control | 104 % of control | 100 % of control | 106 % of control | 116 % of control | 99 % of control | 88 % of control | 95 % of control | O=C1NC(=O)C2=C1c1cn(c3ccccc13)CCCc1ccc(c(N3CCCC3)n1)CCCn1cc2c2ccccc21 [Cpd 7, 31-pyrrolidin-1-yl-5,15,25,30-tetraazaheptacyclo[27.2.2.1^5,12.1^18,25.0^6,11.0^13,17.0^19,24]pentatriaconta-1(31),6,8,10,12(35),13(17),18(34),19,21,23,29,32-dodecaene-14,16-dione]
